Data taken from patent US8808702B2, “Sulfide, sulfoxide and sulfone chalcone analogues, derivatives thereof and therapeutic uses thereof” (Temple University-of the Commonwealth System of Higher …, priority 2006, dated 2014).
Read-outs that look alike come from different tables or passages of the source.

Tests used:
[1] = test system: K562 (chronic myelogenous leukaemia); assay: Effect of compounds on tumor cell lines (assay of Latham et al.), K562; type: cell-based; conditions: K562 cells, read-out: K 562 potency (IC50)
Protocol: (§1) The effect of the compounds of the invention on tumor cells was determined by the assay described by Latham et al., Oncogene 12:827-837 (1996). Tumor cells K562 (chronic myelogenous leukaemia) or DU145 (prostate cancer) were plated in 12-well dishes at a cell density of 2.5×10^4 cells well. The plated cells were treated 24 hours later with a compound of the invention dissolved in DMSO at multiple concentrations ranging from 1 μM to 100 μM. The plates were examined 96 hours later under an inverted microscope, Olympus CK-2 using an 10× objective, and compound activity was noted by physical observation. When necessary, the total number of viable cells was determined by trypsinizing the wells and counting the number of viable cells, as determined by trypan blue exclusion, using a hemacytometer.
(§2) The representative compounds listed in Tables 1-5 are shown by way of illustration, and are not intended to limit the scope of the invention. The compounds are prepared and tested by methods based on those described above, except that the compound of Table 5 was dissolved in DMSO at multiple concentrations ranging from 0.1 μM to 100 μM

DU145 (prostate cancer) = assay: Effect of compounds on tumor cell lines (assay of Latham et al.), DU145; type: cell-based; conditions: DU145 cells, read-out: DU 145 potency (IC50)
Protocol: as §1, §2

[2] = 96 hours after treatment, 1 μM to 100 μM
[3] = Table 1, examined 96 hours after treatment, 1 μM to 100 μM in DMSO
[4] = Table 3, examined 96 hours after treatment, 1 μM to 100 μM in DMSO
[5] = Table 4, examined 96 hours after treatment, 1 μM to 100 μM in DMSO

SMILES	IC50 [1, 2] [µM]	IC50 (DU145 (prostate cancer); [2]) [µM]	also measured
CCN(CC)CCOc1ccc(C(=O)/C(=C\c2ccc(F)c([N+](=O)[O-])c2)SCc2ccc(F)cc2)cc1 [Example 338]	≤ 1	1 to 10	–
Cc1ccc(SC(=Cc2ccc(F)c([N+](=O)[O-])c2)C(=O)c2ccc(Br)cc2)cc1 [Example 113]	–	–	IC50 [1, 3]: 1 to 10 µM; IC50 (DU145 (prostate cancer); [3]): 1 to 10 µM
Cc1ccc(SC(=Cc2ccc(N(C)C)cc2)C(=O)c2ccc(Br)cc2)cc1 [Example 101]	–	–	IC50 [1, 3]: 50 to 100 µM; IC50 (DU145 (prostate cancer); [3]): > 100 µM
O=C(/C(=C\c1ccc(O)c([N+](=O)[O-])c1)SCc1ccc(Br)cc1)c1ccc(Cl)cc1Cl [Example 176]	1 to 10	10 to 25	–
O=C(/C(=C\c1ccc(O)c([N+](=O)[O-])c1)SCc1ccc(Br)cc1)c1cc(Cl)ccc1O [Example 187]	10 to 25	25 to 50	–
Cc1ccsc1C=C(SCc1ccc(Cl)cc1)C(=O)c1ccc(Cl)cc1 [Example 206]	50 to 100	50 to 100	–
O=C(C(=Cc1c[nH]c2ccccc12)SCc1ccc(Cl)cc1Cl)c1ccc(Cl)cc1 [Example 118]	10 to 25	10 to 25	–
O=C(/C(=C\c1ccc(F)c([N+](=O)[O-])c1)SCc1ccc(F)cc1)c1ccccc1 [Example 344]	≤ 1	1 to 10	–
CN1CCN(CCNC(=O)c2ccc(C(=O)C(=Cc3ccc(F)c([N+](=O)[O-])c3)SCc3ccc(Br)cc3)cc2)CC1 [Example 311]	≤ 1	1 to 10	–
CC(=O)c1ccc(C=C(Sc2ccc(C)cc2)C(=O)c2ccc(Br)cc2)cc1 [Example 87]	–	–	IC50 [1, 3]: 50 to 100 µM; IC50 (DU145 (prostate cancer); [3]): 50 to 100 µM
COc1cc(C(=O)/C(=C\c2ccc(O)c([N+](=O)[O-])c2)SCc2ccc(Br)cc2)cc(OC)c1OC [Example 178]	1 to 10	1 to 10	–
O=C(O)c1ccc(C(=O)C(=Cc2ccc(Br)c([N+](=O)[O-])c2)SCc2ccc(F)cc2)cc1 [Example 252]	≤ 1	1 to 10	–
Cc1ccc(C)c(C=C(SCc2ccc(F)cc2)C(=O)c2ccc(Br)cc2)c1 [Example 235]	50 to 100	1 to 10	–
CCOc1ccc(C=C(Sc2ccc(C)cc2)C(=O)c2ccc(Cl)cc2)cc1OC [Example 93]	–	–	IC50 [1, 3]: 10 to 25 µM; IC50 (DU145 (prostate cancer); [3]): 25 to 50 µM
O=C(/C(=C\c1ccc(Cl)cc1Cl)Sc1ccc(Br)cc1)c1ccc(Br)cc1 [Example 15, (E)-1-(4-Bromophenyl)-2-(4-bromophenylthio)-3-(2,4-dichlorophenyl)-prop-2-en-1-one]	–	–	IC50 ([1]; Homo sapiens, Table 1, examined 96 hours after treatment, 1 μM to 100 μM in DMSO): 1 to 10 µM; IC50 (DU145 (prostate cancer); Homo sapiens, DU-145, Table 1, examined 96 hours after treatment, 1 μM to 100 μM in DMSO): 1 to 10 µM
Cc1ccsc1C=C(SCc1ccc(F)cc1)C(=O)c1ccc(Br)cc1 [Example 246]	> 100	50 to 100	–
Cc1ccc(SC(=Cc2c(F)c(F)c(F)c(F)c2F)C(=O)c2ccc(Cl)cc2)cc1 [Example 65]	–	–	IC50 [1, 3]: 25 to 50 µM; IC50 (DU145 (prostate cancer); [3]): 25 to 50 µM
COc1ccccc1C=C(SCc1ccc(Cl)cc1)C(=O)c1ccc([N+](=O)[O-])cc1 [Example 200]	1 to 10	10 to 25	–
O=C(C(=Cc1ccc(F)c([N+](=O)[O-])c1)SCc1ccc(Br)cc1)c1c(F)c(F)c(F)c(F)c1F [Example 310]	1 to 10	1 to 10	–
O=C(C(=Cc1ccc(O)cc1)SCc1ccc(Cl)cc1)c1ccc(Cl)cc1 [Example 222]	1 to 10	10 to 25	–
O=C(C(=Cc1ccc(F)cc1C(F)(F)F)SCc1ccc(F)cc1)c1ccc(Br)cc1 [Example 260]	10 to 25	10 to 25	–
Cc1ccc(C)c(C=C(Sc2ccc(Br)cc2)C(=O)c2ccc(Cl)cc2)c1 [Example 19]	–	–	IC50 [1, 3]: 10 to 25 µM; IC50 (DU145 (prostate cancer); [3]): 10 to 25 µM
O=C(O)c1ccc(C(=O)C(=Cc2ccccc2F)SCc2ccc(Br)cc2)cc1 [Example 306]	10 to 25	10 to 25	–

SMILES	IC50 [1, 2] [µM]	IC50 (DU145 (prostate cancer); [2]) [µM]	also measured
O=C(/C(=C\c1cc(Cl)c(O)c(Cl)c1)S(=O)(=O)Cc1ccc(Br)cc1)c1ccc(Br)cc1 [Example 369]	–	–	IC50 ([1]; Homo sapiens, Table 4, examined 96 hours after treatment, 1 μM to 100 μM in DMSO): 25 to 50 µM; IC50 (DU145 (prostate cancer); Homo sapiens, DU-145, Table 4, examined 96 hours after treatment, 1 μM to 100 μM in DMSO): 25 to 50 µM
CCOc1ccc(C=C(SCc2ccc(F)cc2)C(=O)c2ccc(Br)cc2)cc1OC [Example 257]	1 to 10	50 to 100	–
COc1cc(OC)c(/C=C(\C(=O)c2ccc(Cl)cc2)[S+]([O-])Cc2ccccc2Cl)c(OC)c1 (centres unmarked) [Example 354]	–	–	IC50 [1, 4]: 50 to 100 µM; IC50 (DU145 (prostate cancer); [4]): 10 to 25 µM
O=C(/C(=C\c1ccc(O)c([N+](=O)[O-])c1)S(=O)(=O)Cc1ccc(Cl)cc1)c1ccc(Cl)cc1 [Example 393]	–	–	IC50 [1, 5]: 25 to 50 µM; IC50 (DU145 (prostate cancer); [5]): 25 to 50 µM
O=C(O)c1ccc(C(=O)C(=Cc2ccc(F)c([N+](=O)[O-])c2)Sc2c(F)c(F)c(F)c(F)c2F)cc1 [Example 112]	–	–	IC50 [1, 3]: ≤ 1 µM; IC50 (DU145 (prostate cancer); [3]): 1 to 10 µM
O=C(O)c1ccc(C(=O)C(=Cc2ccc(Cl)c([N+](=O)[O-])c2)SCc2ccc(Cl)cc2)cc1 [Example 216]	≤ 1	1 to 10	–
COc1cc(OC)c(C=C(SCc2ccc(Cl)cc2)C(=O)c2ccc([N+](=O)[O-])cc2)c(OC)c1 [Example 194]	50 to 100	> 100	–
COc1cc(OC)c(C=C(SCc2ccc(Cl)c(Cl)c2)C(=O)c2ccc(Cl)cc2)c(OC)c1 [Example 137]	10 to 25	10 to 25	–
Cc1ccsc1C=C(SCc1ccc(Cl)cc1)C(=O)c1ccc(Br)cc1 [Example 205]	25 to 50	25 to 50	–
O=C(C(=Cc1ccc(Br)cc1)Sc1ccc(Br)cc1)c1ccc(Br)cc1 [Example 35]	–	–	IC50 [1, 3]: 1 to 10 µM; IC50 (DU145 (prostate cancer); [3]): 1 to 10 µM
CN1CCN(CCNC(=O)c2ccc(C(=O)/C(=C\c3ccc(F)c([N+](=O)[O-])c3)SCc3ccc(F)cc3)cc2)CC1 [Example 337]	10 to 25	10 to 25	–
O=C(C(=Cc1ccc(Cl)cc1Cl)SCc1ccc(Cl)cc1)c1ccc(Cl)cc1 [Example 195]	25 to 50	25 to 50	–
O=C(O)c1ccc(C(=O)/C(=C\c2ccc(F)c([N+](=O)[O-])c2)SCc2nc3ccc(Br)cc3[nH]2)cc1 [Example 352]	1 to 10	1 to 10	–
Cc1ccc(C)c(C=C(SCc2ccc(Cl)cc2)C(=O)c2ccc(Cl)cc2)c1 [Example 197]	10 to 25	10 to 25	–
CCN(CC)CCNC(=O)c1c(C)[nH]c(C=C(SCc2ccc(F)cc2)C(=O)c2ccc(C(=O)O)cc2)c1C [Example 248]	50 to 100	50 to 100	–
O=C(/C(=C\c1cccc(Cl)c1Cl)SCc1ccc(Cl)cc1)c1ccc(Br)cc1 [Example 190]	10 to 25	10 to 25	–
O=C(O)c1ccc(C(=O)/C(=C\c2ccc(Cl)c([N+](=O)[O-])c2)SCc2ccc(Br)cc2)cc1 [Example 168]	≤ 1	1 to 10	–
CSc1ccc(C=C(SCc2ccc(C)cc2)C(=O)c2ccc(Br)cc2)cc1 [Example 293]	25 to 50	> 100	–
COc1ccc(C=C(Sc2ccc(C)cc2)C(=O)c2ccc(Cl)cc2)cc1O [Example 79]	–	–	IC50 [1, 3]: 1 to 10 µM; IC50 (DU145 (prostate cancer); [3]): 1 to 10 µM
O=C(O)c1ccc(C(=O)/C(=C\c2ccc(O)c([N+](=O)[O-])c2)SCc2ccc(Br)cc2)cc1 [Example 181]	50 to 100	50 to 100	–
O=C(O)c1cc(C=C(Sc2ccc(Br)cc2)C(=O)c2c(F)c(F)c(F)c(F)c2F)ccc1O [Example 28]	–	–	IC50 [1, 3]: 25 to 50 µM; IC50 (DU145 (prostate cancer); [3]): 25 to 50 µM
CN(C)c1ccc(C=C(SCc2ccc(Cl)cc2)C(=O)c2ccc([N+](=O)[O-])cc2)cc1 [Example 211]	50 to 100	> 100	–
O=C(O)c1ccc(C(=O)C(=Cc2ccc(Br)c([N+](=O)[O-])c2)SCc2ccccc2Cl)cc1 [Example 302]	1 to 10	1 to 10	–
